# According to the supplement of paper PMC10702517:
# ± gives the standard deviation.
# Tests used:
# [1] = chemical recovery from spiked human plasma; higher = better extraction; conditions: pooled human plasma
# [2] = chemical recovery into PDMS from spiked human plasma; higher = better extraction; conditions: pooled human plasma, extraction method: PES with PDMS
# [3] = chemical recovery by SPE of plasma after PDMS sampling; higher = better extraction; conditions: pooled human plasma, extraction method: HLB SPE of plasma after PES
# [4] = extraction method: SPE only (HLB 96-well), PES comparison experiment
# [5] = extraction method: PES+SPE (3 d PDMS equilibration then HLB SPE)
# [6] = extraction method: SPE only (HLB 96-well)
# [7] = extraction method: solvent precipitation (ACN + hexane)
# 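For chemical recovery by SPE of plasma after PDMS sampling in this document: over 400 spiked chemicals quantified by LC-HRMS or GC-HRMS via internal standard calibration, recovery relative to spike mix added to unspiked plasma extract to correct matrix effects.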
SMILES,"chemical recovery [1, 4] [%]",chemical recovery into PDMS ([2]; equilibration time (d): 1) [%],chemical recovery into PDMS ([2]; equilibration time (d): 3) [%],chemical recovery into PDMS ([2]; equilibration time (d): 6) [%],chemical recovery by SPE of plasma ([3]; equilibration time (d): 1) [%],chemical recovery by SPE of plasma ([3]; equilibration time (d): 3) [%],chemical recovery by SPE of plasma ([3]; equilibration time (d): 6) [%],"chemical recovery [1, 5] [%]","chemical recovery [1, 6] [%]","chemical recovery [1, 7] [%]"
"C[C@]12CCC(=O)C=C1CC[C@@H]1[C@@H]2CC[C@]2(C)C(=O)CC[C@@H]12 [4-Androstene-3,17-dione]",49.8 ± 8.7,39.8 ± 3,43.4 ± 1.7,42.6 ± 3.7,1.37 ± 2.1,4.32 ± 1.8,1.36 ± 1.8,,,
CCCC1O[C@@H]2C[C@H]3[C@@H]4CCC5=CC(=O)C=C[C@]5(C)[C@H]4[C@@H](O)C[C@]3(C)[C@]2(C(=O)CO)O1 (stereo partly drawn) [Budesonide],50.5 ± 7,4.21 ± 7.3,,22.6 ± 1.5,35.3 ± 6.4,,25 ± 2.6,,,
CCCN(CCC)c1c([N+](=O)[O-])cc(S(N)(=O)=O)cc1[N+](=O)[O-] [Oryzalin],49.6 ± 5.5,6.21 ± 0.56,10 ± 0.76,11.1 ± 1.2,39.2 ± 5.2,33.9 ± 3,27.7 ± 1.7,,,
COC(=O)Nc1nc2cc(C(=O)c3ccccc3)ccc2[nH]1 [Mebendazole],42.1 ± 5.8,13.7 ± 1.6,21 ± 1.4,23.6 ± 1.8,18.4 ± 2.3,14 ± 1.4,8.71 ± 0.66,71.2 ± 11,45 ± 2.8,77.3 ± 3.4
CCCNCCOc1c(Cl)cc(Cl)cc1Cl [Prochloraz BTS403-48],46.2 ± 5.1,0.602 ± 0.13,0.604 ± 0.12,0.862 ± 0.22,0.247 ± 0.057,0.287 ± 0.11,0.165 ± 0.0069,1.17 ± 0.37,47.1 ± 2,71.2 ± 3
"Nc1ccc(-c2ccc(N)c(Cl)c2)cc1Cl [3,3'-Dichlorobenzidine]",24.4 ± 3.6,3.87 ± 0.23,3.04 ± 0.4,3.28 ± 0.46,16.1 ± 5.5,17.3 ± 2,14.6 ± 2.8,39.1 ± 7.4,54.8 ± 17,72 ± 6.2
CCOC(=O)c1ccc(N)cc1 [Benzocain],,23.5 ± 1.9,23.3 ± 1.7,26.3 ± 2.2,14.6 ± 2.6,18.4 ± 1.5,14.4 ± 2.3,32.9 ± 5.6,39.3 ± 3.4,64.9 ± 4.3
CCOC(=O)C1=C(C)NC(C)=C(C(=O)OC)C1c1cccc([N+](=O)[O-])c1 (stereo not drawn) [Nitrendipin],51.5 ± 5.5,13.4 ± 0.56,17.4 ± 3.6,18.6 ± 1.1,7.61 ± 0.89,5.18 ± 0.19,2.81 ± 0.16,37.1 ± 7.9,42.25 ± 0.22,52.1 ± 2.9
CC(=O)c1cc2c(cc1C)C(C)(C)C(C)CC2(C)C (stereo not drawn) [Tonalide],22.3 ± 6.1,49 ± 3.7,48.1 ± 5.2,55.1 ± 2.9,0.526 ± 0.91,,,41.1 ± 12,17.1 ± 5,
Clc1ccc2[nH]nnc2c1 [5-Chlorobenzotriazole],52.8 ± 6.1,0.3 ± 0.043,0.905 ± 0.21,1.34 ± 0.43,55.2 ± 9.2,55.2 ± 5,52.3 ± 6.8,44.7 ± 2.5,41.8 ± 2.6,59.3 ± 5
CCCCc1c(C)nc(NCC)nc1OS(=O)(=O)N(C)C [Bupirimate],48.9 ± 8.9,40.3 ± 1.4,43.9 ± 4.2,41.4 ± 2.6,,0.147 ± 0.26,,,,
Nc1cn[nH]c(=O)c1Cl [Desphenyl chloridazon],6.79 ± 4.2,0.0144 ± 0.043,0.133 ± 0.038,0.161 ± 0.2,2.76 ± 0.75,2.06 ± 0.86,3.77 ± 0.81,,,
CCCCCCCCCCCC(=O)N(CCO)CCO [Lauryl diethanolamide],51.6 ± 7.8,16.8 ± 3,24.3 ± 2.5,26.3 ± 2.7,24.9 ± 2.9,18.5 ± 3.1,13.2 ± 2.9,,,
c1ccc2sc(NC3CCCCC3)nc2c1 [N-Cyclohexyl-2-benzothiazole-amine],42.4 ± 6.5,32.4 ± 2.2,34 ± 3,34.2 ± 1.6,0.591 ± 0.065,0.595 ± 0.073,0.297 ± 0.037,98.9 ± 11,51.9 ± 3.6,74.8 ± 3.3
CN1C(=O)C(O)N=C(c2ccccc2)c2cc(Cl)ccc21 (stereo not drawn) [Temazepam],44.5 ± 6.3,11.2 ± 0.91,16.5 ± 0.71,17.6 ± 1.9,30.4 ± 4.8,27.9 ± 3.1,22 ± 2.1,62.9 ± 6.2,46.8 ± 2.9,77.8 ± 3.1
CC(=O)[C@@]1(O)CC[C@H]2[C@@H]3C=C(Cl)C4=CC(=O)[C@@H]5C[C@@H]5[C@]4(C)[C@H]3CC[C@@]21C [Cyproterone],44.8 ± 7,34.4 ± 3.3,39 ± 1.6,39.5 ± 1.2,7.2 ± 0.97,4.61 ± 0.52,2.35 ± 0.21,,,
CCCOC(=O)c1ccc(O)cc1 [Propylparaben],67.9 ± 7.4,11.6 ± 0.24,13.2 ± 1.9,14.8 ± 2,40.3 ± 8.2,43 ± 3.8,34 ± 0.68,56.4 ± 4.7,43.1 ± 2.1,70.6 ± 3.7
CCCc1nc2c(C)cc(-c3nc4ccccc4n3C)cc2n1Cc1ccc(-c2ccccc2C(=O)O)cc1 [Telmisartan],45.4 ± 5.1,0.144 ± 0.041,0.817 ± 0.34,1.28 ± 0.6,43.6 ± 3.4,46.2 ± 1,43.5 ± 2.1,55.8 ± 1.8,50.8 ± 2.5,
COCCN(C(=O)C(=O)O)c1c(C)cccc1C [Dimethachlor OA],51.3 ± 3.7,,,0.00348 ± 0.006,60.2 ± 9.2,69.4 ± 2.3,61.4 ± 2.8,,28.1 ± 6.4,56.8 ± 7.6
N#Cc1nn(-c2c(Cl)cc(C(F)(F)F)cc2Cl)c(N)c1S(=O)(=O)C(F)(F)F [Fipronil sulfone],67.9 ± 8.3,27.8 ± 0.78,32.2 ± 2.1,31 ± 0.79,41.6 ± 14,34.1 ± 7.7,30.8 ± 9.5,,36.7 ± 3.6,67.4 ± 7.9
CC1CN(C2CCCCCCCCCCC2)CC(C)O1 (stereo not drawn) [Dodemorph],44.3 ± 4.7,1.2 ± 0.66,1.32 ± 1,1.41 ± 0.46,0.166 ± 0.13,0.11 ± 0.031,0.044 ± 0.0048,,29 ± 0.98,73 ± 8.6
CSc1nc(NC2CC2)nc(NC(C)(C)C)n1 [Irgarol],44.2 ± 6.4,19.6 ± 7,19.3 ± 6.5,20.9 ± 3.9,0.863 ± 0.085,0.842 ± 0.15,0.421 ± 0.023,,55.7 ± 4,81.5 ± 4.4
c1ccc(-c2cccc3ccccc23)cc1 [1-Phenylnaphthalene],17.3 ± 3,70.3 ± 20,70.6 ± 5.2,78.1 ± 11,,2.49 ± 2.2,,45.1 ± 7.6,12.2 ± 3,
Clc1cc(Cl)c(-c2cc(Cl)c(Cl)c(Cl)c2Cl)cc1Cl [PCB180],,,67.8 ± 8,73.3 ± 5.7,4.51 ± 2.9,3.71 ± 1,1.43 ± 0.49,40.2 ± 2.1,1.45 ± 0.68,
